Experimental data as given in patent US7557133B2, “Caspase inhibitors containing isoxazoline ring” (LG Life Sciences Ltd., priority 2003, dated 2009).
pIC50: −log10 of the molar value.

Legend:
[1] = test system: Jurkat cell (ATCC TIB-152); assay: Jurkat cell apoptosis by Fas antibody, WST-1 method; type: cell-based; settings: apoptosis using Fas antibody, WST-1; for pIC50: Homo sapiens, Jurkat
Procedure: The […] inhibitory activity of the inhibitors was determined by subjecting Jurkat cell (ATCC TIB-152) to apoptosis using Fas antibody (Upstate Biotech 05-201) and by detecting the color change according to the WST-1 method known in Francoeur A. M. and Assalian A. (1996) Biochemica 3, 19-25 to observe the amount of alive Jurkat cells when the cells were treated by the inhibitor. Spectra MAX 340 Spectrometer of Molecular Device Co. was used at the absorbance wavelength of 440 nm.

caspase-8 = molecular target: T1, caspase-8 (Homo sapiens, UniProt Q14790); assay: Caspase-8 inhibitory effect (fluorescent substrate AcDEVD-AFC); type: biochemical; settings: 25° C., 50 μM AcDEVD-AFC, 2.1 nM caspase-8; for kinact/KI: pH 7.5, read-out: Caspase-8 Kobs/[I] (converted)
T1 construct: p10 and p20 subunits (Thornberry, N. A. et al, Nature, 1992, 356, 768) were expressed in E. coli; made in house; host or cells: E. coli
T1 sequence (Q14790 217-374 limits assumed, species assumed): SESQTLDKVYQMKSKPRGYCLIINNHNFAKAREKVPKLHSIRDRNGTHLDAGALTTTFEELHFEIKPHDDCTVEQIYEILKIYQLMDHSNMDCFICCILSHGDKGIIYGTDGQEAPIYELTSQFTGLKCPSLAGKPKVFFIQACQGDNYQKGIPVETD
T1 sequence (Q14790 385-479 limits assumed, species assumed): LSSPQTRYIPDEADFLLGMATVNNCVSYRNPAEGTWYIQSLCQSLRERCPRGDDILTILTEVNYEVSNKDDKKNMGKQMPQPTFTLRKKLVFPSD
Procedure: Caspase-1 and caspase-8 known as cysteine proteases in the form of α2β2 were expressed, purified, and activated by modifying a method known in Thornberry, N. A. et al, Nature, 1992, 356, 768. Thornberry, N. A. Methods in Enzymology, 1994, 244, 615. Walker, N. P. C. et al. Cell, 1994, 78, 343, and caspase-9 was also purified by a similar method, and the inhibitory activity against them was tested. Briefly describing, p10 and p20 subunits (Thornberry, N. A. et al, Nature, 1992, 356, 768) were expressed in E. coli and purified by nickel column and anionic exchange chromatography to give caspase-1, caspase-8 and caspase-9. The fluorescent substrate AcYVAD-AFC for thus obtained caspase-1, AcDEVD-AFC for caspase-8, and AcLEHD-AFC for caspase-9 were used for determining specific activity of the synthesized inhibitors. The enzyme reaction was carried out at 25° C. with various concentrations of the inhibitors in a buffer solution containing 50 mM HEPES(pH 7.50), 10% (w/v) sucrose, 0.1% (w/v) CHAPS, 100 mM NaCl, 1 mM EDTA, and 10 mM DTT in the presence of 50 μM AcYVAD-AFC for 10 nM caspase-1, 50 μM AcDEVD-AFC for 2.1 nM caspase-8, and 150 μM AcLEHD-AFC for 200 nM caspase-9. The inhibitory constants Ki and Kobs of the inhibitors were determined by measuring the reaction velocity with the time lapse using a fluorescent spectrometer and by obtaining the initial rate constant. Ki was calculated from the Lineweaver Burk Plot, and Kobs from the following Equation 1. Kobs=−ln(1−At/Aoo)/t Equation 1
At means cleavate rate (%) at time t, and
Aoo means the maximum cleavage rate (%).
Spectra MAX GeminiXS Fluorescent Spectrometer of Molecular Device Co. was used at the excitation wavelength of 405 nm and the emission wavelength of […].

With `CC(C)[C@@]1(C(=O)N[C@@H](CC(=O)O)C(=O)COc2cc(C(F)(F)F)nn2-c2ccccc2)CC(c2nccc3ccccc23)=NO1` [Iaa19, (3S)-3-({[(5R)-5-isopropyl-3-(1-isoquinolinyl)-4,5-dihydro-5-isoxazolyl]carbonyl}amino)-4-oxo-5-{[1-phenyl-3-(trifluoromethyl)-1H-pyrazol-5-yl]oxy}pentanoic acid] the “Jurkat cell IC50” value [1] was “No Activity” and the kinact/KI (caspase-8) was 267 M⁻¹ s⁻¹.
`CC(C)[C@@]1(C(=O)NC(CC(=O)O)C(=O)CF)CC(c2ccc3ccccc3n2)=NO1` (stereo partly drawn) [Izz, 5-Fluoro-3-({[(5R)-5-isopropyl-3-(2-quinolinyl)-4,5-dihydro-5-isoxazolyl]carbonyl}amino)-4-oxopentanoic Acid] gave a pIC50 [1] of 5.90 and a kinact/KI (caspase-8) of 7000 M⁻¹ s⁻¹.
`CCC[C@@]1(C(=O)NC(CC(=O)O)C(=O)CF)CC(c2nccc3ccccc23)=NO1` (stereo partly drawn) [Itt, 5-Fluoro-3-({[(5S)-3-(1-isoquinolinyl)-5-propyl-4,5-dihydro-5-isoxazolyl]carbonyl}amino)-4-oxopentanoic acid] gave a pIC50 [1] of 6.80 and a kinact/KI (caspase-8) of 7170 M⁻¹ s⁻¹.
For `CC(C)[C@@]1(C(=O)N[C@@H](CC(=O)O)C(=O)COC2=C(Cc3ccccc3)C(=O)OC2)CC(c2nccc3ccccc23)=NO1` [Iaa20, (3S)-5-[(4-benzyl-5-oxo-2,5-dihydro-3-furanyl)oxy]-3-({[(5R)-5-isopropyl-3-(1-isoquinolinyl)-4,5-dihydro-5-isoxazolyl]carbonyl}amino)-4-oxopentanoic Acid], the “Jurkat cell IC50” value [1] was “No Activity” and the kinact/KI (caspase-8) was 617 M⁻¹ s⁻¹.
Work on `CCC1(C(=O)N[C@@H](CC(=O)O)C(=O)COc2c(F)c(F)cc(F)c2F)CC(Cc2cccc3ccccc23)=NO1` (stereo partly drawn) [Inn, (3S)-3-({[5-ethyl-3-(1-naphthylmethyl)-4,5-dihydro-5-isoxazolyl]carbonyl}amino)-4-oxo-5-(2,3,5,6-tetrafluorophenoxy)pentanoic acid] yielded a pIC50 [1] of 5.19 and a kinact/KI (caspase-8) of 4330 M⁻¹ s⁻¹.
`CC[C@@]1(C(=O)NC(CC(=O)O)C(=O)CF)CC(c2cccc3ccccc23)=NO1` (stereo partly drawn) [Iuu, 3-({[(5S)-5-ethyl-3-(1-naphthyl)-4,5-dihydro-5-isoxazolyl]carbonyl}amino)-5-fluoro-4-oxopentanoic acid] showed a pIC50 [1] of 6.01 and a kinact/KI (caspase-8) of 4830 M⁻¹ s⁻¹.
`CCC1(C(=O)NC(CC(=O)O)C(=O)CF)CC(c2cc(C3CCCC3)ccn2)=NO1` (stereo not shown) [Iaa13, 3-({[3-(4-Cyclopentyl-2-pyridinyl)-5-ethyl-4,5-dihydro-5-isoxazolyl]carbonyl}amino)-5-fluoro-4-oxopentanoic Acid] was tested, and the pIC50 [1] was 6.46 and the kinact/KI (caspase-8) was 5170 M⁻¹ s⁻¹.
`CCC1(C(=O)NC(CC(=O)O)C(=O)CF)CC(c2ccccn2)=NO1` (stereo not shown) [Iaa7, 3-({[5-Ethyl-3-(2-pyridinyl)-4,5-dihydro-5-isoxazolyl]carbonyl}amino)-5-fluoro-4-oxopentanoic Acid] gave a pIC50 [1] of 5.64 and a kinact/KI (caspase-8) of 733 M⁻¹ s⁻¹.
Molecule `CC(C)C1(C(=O)NC(CC(=O)O)C(=O)CF)CC(c2cc3cc(Cl)ccc3n2C)=NO1` (stereo not shown) [Iaa27, 3-({[3-(5-chloro-1-methyl-1H-indol-2-yl)-5-isopropyl-4,5-dihydro-5-isoxazolyl]carbonyl}amino)-5-fluoro-4-oxopentanoic acid] has a pIC50 [1] of 5.89 and a kinact/KI (caspase-8) of 13700 M⁻¹ s⁻¹.
With `CCC1(C(=O)N[C@@H](CC(=O)O)C(=O)COc2cccc[n+]2C)CC(c2ccccc2C(C)C)=NO1.O=S(=O)([O-])C(F)(F)F` (stereo partly drawn) [Iaa26, 2-{[(3S)-4-carboxy-3-({[5-ethyl-3-(2-isopropylphenyl)-4,5-dihydro-5-isoxazolyl]carbonyl}amino)-2-oxobutyl]oxy}-1-methylpyridinium trifluoromethanesulfonate] the “Jurkat cell IC50” value [1] was “No Activity” and the kinact/KI (caspase-8) was 517 M⁻¹ s⁻¹.
For `CC(C)[C@@]1(C(=O)NC(CC(=O)O)C(=O)CF)CC(c2cc(C(C)(C)C)ccn2)=NO1` (stereo partly drawn) [Iaa9, 3-[({(5R)-3-[4-(tert-butyl)-2-pyridinyl]-5-isopropyl-4,5-dihydro-5-isoxazolyl}carbonyl)amino]-5-fluoro-4-oxopentanoic acid], the pIC50 [1] was 5.91 and the kinact/KI (caspase-8) was 3830 M⁻¹ s⁻¹.
Molecule `CC[C@]1(C(=O)NC(CC(=O)O)C(=O)CF)CC(c2cc3ccccc3cn2)=NO1` (stereo partly drawn) [Iww, 3-({[(5R)-5-ethyl-3-(3-isoquinolinyl)-4,5-dihydro-5-isoxazolyl]carbonyl}amino)-5-fluoro-4-oxopentanoic Acid] has a pIC50 [1] of 5.72 and a kinact/KI (caspase-8) of 18300 M⁻¹ s⁻¹.
With `CC(C)[C@@]1(C(=O)NC(CC(=O)O)C(=O)CF)CC(c2cc(C3CCCC3)ccn2)=NO1` (stereo partly drawn) [Iaa14, 3-({[(5R)-3-(4-cyclopentyl-2-pyridinyl)-5-isopropyl-4,5-dihydro-5-isoxazolyl]carbonyl}amino)-5-fluoro-4-oxopentanoic Acid] the pIC50 [1] was 6.10 and the kinact/KI (caspase-8) was 6830 M⁻¹ s⁻¹.
With `CCC1(C(=O)NC(CC(=O)O)C(=O)CF)CC(c2cccc(C(C)(C)C)c2)=NO1` (stereo not shown) [Iaa2, 3-[({3-[3-(tert-Butyl)phenyl]-5-ethyl-4,5-dihydro-5-isoxazolyl}carbonyl)amino]-5-fluoro-4-oxopentanoic acid] the pIC50 [1] was 6.25 and the kinact/KI (caspase-8) was 5330 M⁻¹ s⁻¹.
Molecule `CCC1(C(=O)NC(CC(=O)O)C(=O)CF)CC(c2nccc3c2CCCC3)=NO1` (stereo not shown) [Iaa16, 3-({[5-Ethyl-3-(5,6,7,8-tetrahydro-1-isoquinolinyl)-4,5-dihydro-5-isoxazolyl]carbonyl}amino)-5-fluoro-4-oxopentanoic acid] has a pIC50 [1] of 6.14 and a kinact/KI (caspase-8) of 10300 M⁻¹ s⁻¹.
With `CC(C)[C@@]1(C(=O)N[C@@H](CC(=O)O)C(=O)COc2ccccn2)CC(c2nccc3ccccc23)=NO1` [Iaa23, (3S)-3-({[(5R)-5-isopropyl-3-(1-isoquinolinyl)-4,5-dihydro-5-isoxazolyl]carbonyl}amino)-4-oxo-5-(2-pyridinyloxy)pentanoic Acid] the “Jurkat cell IC50” value [1] was “No Activity” and the kinact/KI (caspase-8) was 483 M⁻¹ s⁻¹.
For `CC(C)C1(C(=O)NC(CC(=O)O)C(=O)CF)CC(c2cccc(-c3ccccc3)c2)=NO1` (stereo not shown) [Iaa6, 3-{[(3-[1,1′-biphenyl]-3-yl-5-isopropyl-4,5-dihydro-5-isoxazolyl)carbonyl]amino}-5-fluoro-4-oxopentanoic acid], the pIC50 [1] was 5.61 and the kinact/KI (caspase-8) was 3330 M⁻¹ s⁻¹.
With `Cc1ccc2c(c1)cc(C1=NOC(C(=O)NC(CC(=O)O)C(=O)CF)(C(C)C)C1)n2C` (stereo not shown) [Iaa28, 3-({[3-(1,5-dimethyl-1H-indol-2-yl)-5-isopropyl-4,5-dihydro-5-isoxazolyl]carbonyl}amino)-5-fluoro-4-oxopentanoic Acid] the pIC50 [1] was 6.22 and the kinact/KI (caspase-8) was 30000 M⁻¹ s⁻¹.
`CCC1(C(=O)NC(CC(=O)O)C(=O)CF)CC(c2cnc3ccccc3c2)=NO1` (stereo not shown) [Iyy, 3-({[5-ethyl-3-(3-quinolinyl)-4,5-dihydro-5-isoxazolyl]carbonyl}amino)-5-fluoro-4-oxopentanoic acid] was tested, and the pIC50 [1] was 4.51 and the kinact/KI (caspase-8) was 5170 M⁻¹ s⁻¹.
For `CC(C)C(=O)OCC(=O)[C@H](CC(=O)O)NC(=O)[C@]1(C(C)C)CC(c2nccc3ccccc23)=NO1` [Iaa21, (3S)-5-(isobutyryloxy)-3-({[(5R)-5-isopropyl-3-(1-isoquinolinyl)-4,5-dihydro-5-isoxazolyl]carbonyl}amino)-4-oxopentanoic acid], the “Jurkat cell IC50” value [1] was “No Activity” and the “Caspase-8 Kobs/[I]” value (caspase-8) was “No Activity”.
With `CCC1(C(=O)NC(CC(=O)O)C(=O)CF)CC(c2cccc3cccnc23)=NO1` (stereo not shown) [Ixx, 3-({[5-ethyl-3-(8-quinolinyl)-4,5-dihydro-5-isoxazolyl]carbonyl}amino)-5-fluoro-4-oxopentanoic acid] the pIC50 [1] was 4.58 and the kinact/KI (caspase-8) was 667 M⁻¹ s⁻¹.
With `CC(C)[C@@]1(C(=O)N[C@@H](CC(=O)O)C(=O)COP(=O)(c2ccccc2)c2ccccc2)CC(c2nccc3ccccc23)=NO1` [Iaa18, (3S)-5-[(diphenylphosphoryl)oxy]-3-({[(5R)-5-isopropyl-3-(1-isoquinolinyl)-4,5-dihydro-5-isoxazolyl]carbonyl}amino)-4-oxopentanoic acid] the pIC50 [1] was 5.82 and the kinact/KI (caspase-8) was 8670 M⁻¹ s⁻¹.
In the case of `CCC1(C(=O)NC(CC(=O)O)C(=O)CF)CC(c2cc(C3CCCCC3)ccn2)=NO1` (stereo not shown) [Iaa15, 3-({[3-(4-Cyclohexyl-2-pyridinyl)-5-ethyl-4,5-dihydro-5-isoxazolyl]carbonyl}amino)-5-fluoro-4-oxopentanoic Acid], the pIC50 [1] was 6.14 and the kinact/KI (caspase-8) was 7170 M⁻¹ s⁻¹.
